Measurements published in article PMC8728736, “A Reactivity-Based ^18F-Labeled Probe for PET Imaging of Oxidative Stress in Chemotherapy-Induced Cardiotoxicity” (Molecular Pharmaceutics, 2021).

Columns and labels:
[1] = Reactivity of 18F-FPBT to reactive oxygen species: peroxynitrite; settings: 3-morpholinosydnomine 100 μM, 5 min
Protocol: (§1) ^18F-FPBT (0.5–2.0 MBq) was reacted with potassium superoxide (source of superoxide, 1 mg), hydrogen peroxide (100 μM), Fenton-reaction-generated hydroxyl radicals (100 μM), iron(II) sulfate heptahydrate (100 μM), tert-butyl hydroperoxide (100 μM), tert-butoxy radical (100 μM), and 3-morpholinosydnomine (source of peroxynitrite (100 μM)) for 5 min or diethylamine NONOate (source of nitric oxide, 100 μM) for 30 min at room temperature, after which it was subjected to radio-HPLC analysis and % oxidation was calculated.

[2] = Lipophilicity, partition between 1-octanol and PBS; type: physicochemical; settings: 1-octanol/PBS, pH 7.4, 1-octanol/PBS pH 7.4, shake-flask, n = 6; read-out: LogD
Protocol: The lipophilicity of ^18F-FPBT and ^18F-FPBT-Ox was determined by a conventional partition method between 1-octanol and phosphate buffered saline (PBS), pH 7.4. 1-Octanol was presaturated with PBS before use. The radiotracer (∼2 KBq) was added to a mixture of PBS (200 μL) and 1-octanol (200 μL) in a 1.5 mL Eppendorf vial (n = 6). The mixture was vigorously agitated at rt for 5 min and then centrifuged at 3000 g for 10 min. A 100 μL aliquot from each layer was drawn for measurement in a gamma counter. The LogDoct/PBS was calculated as follows: log [(cpm in the 1-octanol layer – cpm 1-octanol blank)/(cpm in the PBS layer – cpm PBS blank)].

[3] = Reactivity of 18F-FPBT to reactive oxygen species: hydrogen peroxide; settings: 100 μM, 5 min
Protocol: as §1

[4] = PET/CT imaging of healthy mice; type: in vivo, C57BL/6 mice; settings: iv
Protocol: C57BL/6 mice (male, 25 ± 2 g, n = 3) were placed on the PET scanner bed and injected with ^18F-FPBT (1.7 ± 0.4 MBq) through the tail vein at the start time of PET acquisition. A dynamic PET scan was performed for 60 min, followed by a CT scan and ex vivo biodistribution. The PET data was reconstructed into 5 frames of 60 s, 3 frames of 300 s, and 4 frames of 600 s. Regions of interest (ROIs) were drawn and quantified using VivoQuant software (v3.0, inviCRO, LLC, Boston, USA). Organ uptake was calculated as standard uptake values (SUV), and data are reported as mean ± SD.

[5] = Reactivity of 18F-FPBT to reactive oxygen species: hydroxyl radical; settings: Fenton-reaction-generated hydroxyl radicals 100 μM, 5 min
Protocol: as §1

[6] = PET/CT imaging in rat model of doxorubicin-induced cardiotoxicity; type: in vivo, Wistar rats; settings: PET, 30 min scan, doxorubicin n = 6, saline n = 4
Protocol: Male Wistar rats (280–300 g) were used in all experiments. Subcutaneous 7 day osmotic pumps (Alzet), containing either doxorubicin (Cambridge Bioscience, 30 mg/kg cumulative dose) or vehicle (sterile 0.9% NaCl), were inserted into rats under 2% isoflurane in 100% oxygen.
Wistar rats that had received either doxorubicin treatment (male, 267 ± 19 g, n = 6) or saline (male, 303 ± 9 g, n = 4) via osmotic pumps for 7 days were injected with ^18F-FPBT (2.6 ± 1.5 MBq) via the tail vein on the PET/CT scanner bed. The time of injection coincided with the beginning of PET acquisition in order to obtain dynamic tracer uptake information. PET scans with the chest area in the field of vision were acquired for 30 min, followed by a CT scan, after which the animals were sacrificed and organs harvested, weighed, and gamma-counted as for the biodistribution protocol. The hearts were frozen in liquid nitrogen for gamma counting and oxidative stress biomarker assays. The PET data was reconstructed into three frames: 0–3 min, 3–10 min, and 10–30 min. For the time–activity curve, the PET data was reconstructed into 1 min per frame in the first 5 min and then 5 min per frame between 5 and 30 min. […] Radioactivity uptake in the heart was calculated as a standard uptake value ratio (SUVR) between left ventricle and blood. […]

[7] = Reactivity of 18F-FPBT to reactive oxygen species: tert-butoxy radical; settings: 100 μM, 5 min
Protocol: as §1

[8] = Vial stability by radio-HPLC; type: physicochemical; settings: room temperature, 4 h
Protocol: ^18F-FPBT (1–4 MBq) in 100% ethanol or 5% ethanol in PBS containing sodium ascorbate (0.01 mg/mL) was kept at room temperature for 4 h and then analyzed by radio-HPLC.

[9] = Serum stability at 37 °C by radio-HPLC; type: in vitro ADME, rat; settings: rat serum, ice-cold acetonitrile precipitation
Protocol: ^18F-FPBT (∼3.0 MBq) in 5% ethanol in PBS (200 μL) containing sodium ascorbate (0.01 mg/mL) was incubated with rat serum (200 μL) at 37 °C for 1 min or 1 h. Subsequently, plasma proteins were precipitated from the supernatant with ice-cold acetonitrile (1.5 mL), and samples were centrifuged (3 min, 13 000 rpm). The residual activity in the pellet was <3%. The supernatant (∼2.0 MBq, 1.0 mL) was analyzed by radio-HPLC. HPLC method: ZORBAX column (300SB-C18, semipreparative 9.4 mm × 250 mm, 5 μm) using acetonitrile and water as the mobile phase, at a flow rate of 3.0 mL/min. The following gradient was used: from 50% to 90% acetonitrile in 15 min; kept at 90% acetonitrile for 10 min; from 90 to 50% acetonitrile in 5 min.
^18F-FBPT-Ox (2–4 MBq, 50 μL in 10% EtOH/PBS) was added to serum (500 μL) and incubated at 37 °C for 5, 15, and 30 min, respectively. Plasma proteins were precipitated with a 5-sulfosalicylic acid water solution (10% w/v, 1 mL) and centrifuged (3 min, 13 000 rpm). The supernatant was removed and diluted with 500 μL of DI H2O and analyzed via radio-HPLC. A control experiment was performed where ^18F-FBPT-Ox (2 MBq, 50 μL in 10% EtOH/PBS) was added to 500 μL of PBS, incubated at 37 °C for 30 min. A 5-sulfosalicylic acid water solution (10% w/v, 1 mL) was added, thoroughly mixed, then diluted with 500 μL of DI H2O, and analyzed via radio-HPLC. […]

[10] = Reactivity of 18F-FPBT to reactive oxygen species: nitric oxide; settings: diethylamine NONOate 100 μM, 30 min
Protocol: as §1

[18F]CCCN1c2ccccc2SC1c1ccccc1 (centres unmarked) [^18F-FPBT, 3-(3-[^18F]Fluoropropyl)-2-phenyl-2,3-dihydrobenzo[d]thiazole]
Reactivity to peroxynitrite [1]: some reactivity
LogD [2]: 1 ± 0.08
Reactivity to hydrogen peroxide [3]: some reactivity
Background retention in heart, lungs, spleen and brain [4]: low nonspecific background retention
Time to excretion by renal and hepatobiliary routes [4]: less than 1 h
Blood clearance ([4]; dynamic PET 60 min): fast blood clearance
Reactivity to hydroxyl radical [5]: inert
SUVR LV/blood (heart uptake) of doxorubicin-treated rats compared to vehicle control group [6]: statistically significantly (p < 0.05) higher
SUVR LV/blood (heart uptake) of doxorubicin-treated rats compared to vehicle control group ([6]; listed as 18F-FBPT): significantly higher (P < 0.05) uptake
Oxidation by tert-butoxy radical [7]: no oxidation was observed
Vial stability ([8]; 5% ethanol in PBS with ascorbic acid (0.01 mg/mL)): stable
Vial stability ([8]; pure ethanol): stable
Residual activity in the pellet after protein precipitation [9]: < 3%
Reactivity to nitric oxide [10]: some reactivity
